{"source": "patent US20260285850A1", "about": "“SUBSTITUTED OXAZOLIDINONES AND IMIDAZOLINONES AS HERBICIDES” (FMC CORPORATION, priority 2023, published 2026)", "type_in_all_cases": "in vivo", "key": {"[1]": {"tested_on": "ryegrass, Italian (italian ryegrass, Lolium multiflorum)", "assay": "Test A preemergence soil spray, visual injury rating 0-100", "settings": "10 days", "method_in_brief": "(§1)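 Visual injury ratings (0, no effect; 100, complete control) were assigned relative to untreated plants 10 days after treatment. Test chemicals, formulated with a surfactant-containing non-phytotoxic solvent, were applied in loam-sand soil either as a directed soil spray before emergence or to emerged plants, and plants were kept in a greenhouse.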"}, "[2]": {"tested_on": "palmer (palmer amaranth, palmer pigweed, Amaranthus palmeri)", "assay": "Test A preemergence soil spray, visual injury rating 0-100", "settings": "10 days", "method_in_brief": "as §1"}, "[3]": {"tested_on": "green foxtail (Setaria viridis)", "assay": "Test A preemergence soil spray, visual injury rating 0-100", "settings": "10 days", "method_in_brief": "as §1"}, "[4]": {"tested_on": "blackgrass (Alopecurus myosuroides)", "assay": "Test A preemergence soil spray, visual injury rating 0-100", "settings": "10 days", "method_in_brief": "as §1"}, "[5]": {"tested_on": "soybean (Glycine max)", "assay": "Test A preemergence soil spray, visual injury rating 0-100", "settings": "10 days", "method_in_brief": "as §1"}, "[6]": {"tested_on": "barnyardgrass (Echinochloa crus-galli)", "assay": "Test A preemergence soil spray, visual injury rating 0-100", "settings": "10 days", "method_in_brief": "as §1"}, "[7]": {"tested_on": "corn (Zea mays)", "assay": "Test A preemergence soil spray, visual injury rating 0-100", "settings": "10 days", "method_in_brief": "as §1"}, "[8]": {"tested_on": "kochia (Bassia scoparia)", "assay": "Test A preemergence soil spray, visual injury rating 0-100", "settings": "10 days", "method_in_brief": "as §1"}, "[9]": {"tested_on": "wheat (Triticum aestivum)", "assay": "Test A preemergence soil spray, visual injury rating 0-100", "settings": "10 days", "method_in_brief": "as §1"}, "[10]": {"tested_on": "ragweed (common ragweed, Ambrosia artemisiifolia)", "assay": "Test A preemergence soil spray, visual injury rating 0-100", "settings": "10 days", "method_in_brief": "as §1"}, "[11]": {"tested_on": "oat, wild (wild oat, Avena fatua)", "assay": "Test A preemergence soil spray, visual injury rating 0-100", "settings": "10 days", "method_in_brief": "as §1"}, "[12]": {"tested_on": "ryegrass, Italian (italian ryegrass, Lolium multiflorum)", "assay": "Test A postemergence application, visual injury rating 0-100", "method_in_brief": "as §1"}, "[13]": {"tested_on": "palmer (palmer amaranth, palmer pigweed, Amaranthus palmeri)", "assay": "Test A postemergence application, visual injury rating 0-100", "method_in_brief": "as §1"}, "[14]": {"tested_on": "green foxtail (Setaria viridis)", "assay": "Test A postemergence application, visual injury rating 0-100", "method_in_brief": "as §1"}, "[15]": {"tested_on": "blackgrass (Alopecurus myosuroides)", "assay": "Test A postemergence application, visual injury rating 0-100", "method_in_brief": "as §1"}, "[16]": {"tested_on": "soybean (Glycine max)", "assay": "Test A postemergence application, visual injury rating 0-100", "method_in_brief": "as §1"}, "[17]": {"tested_on": "barnyardgrass (Echinochloa crus-galli)", "assay": "Test A postemergence application, visual injury rating 0-100", "method_in_brief": "as §1"}, "[18]": {"tested_on": "corn (Zea mays)", "assay": "Test A postemergence application, visual injury rating 0-100", "method_in_brief": "as §1"}, "[19]": {"tested_on": "kochia (Bassia scoparia)", "assay": "Test A postemergence application, visual injury rating 0-100", "method_in_brief": "as §1"}, "[20]": {"tested_on": "wheat (Triticum aestivum)", "assay": "Test A postemergence application, visual injury rating 0-100", "method_in_brief": "as §1"}, "[21]": {"tested_on": "galium (catchweed bedstraw, Galium aparine)", "assay": "Test A postemergence application, visual injury rating 0-100", "method_in_brief": "as §1"}, "[22]": {"tested_on": "ragweed (common ragweed, Ambrosia artemisiifolia)", "assay": "Test A postemergence application, visual injury rating 0-100", "method_in_brief": "as §1"}, "[23]": {"tested_on": "oat, wild (wild oat, Avena fatua)", "assay": "Test A postemergence application, visual injury rating 0-100", "method_in_brief": "as §1"}, "[24]": {"tested_on": "barnyardgrass (Echinochloa crusgalli)", "assay": "Test B flooded paddy test, visual plant response rating 0-100", "settings": "250 g ai/ha, Flood, applied to paddy water, evaluated after 13 days", "method_in_brief": "(§2)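 Plants were grown to the 2-leaf stage, then pots were flooded to 3 cm above the soil and test compounds were applied directly into the paddy water. Water depth was held there throughout; after 13 days in a greenhouse, injury was scored visually against untreated controls.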"}, "[25]": {"tested_on": "rice (Oryza sativa)", "assay": "Test B flooded paddy test, visual plant response rating 0-100", "settings": "250 g ai/ha, Flood, applied to paddy water, evaluated after 13 days", "method_in_brief": "as §2"}, "[26]": {"tested_on": "ducksalad (Heteranthera limosa)", "assay": "Test B flooded paddy test, visual plant response rating 0-100", "settings": "250 g ai/ha, Flood, applied to paddy water, evaluated after 13 days", "method_in_brief": "as §2"}, "[27]": {"tested_on": "sedge, umbrella (small-flower umbrella sedge, Cyperus difformis)", "assay": "Test B flooded paddy test, visual plant response rating 0-100", "settings": "250 g ai/ha, Flood, applied to paddy water, evaluated after 13 days", "method_in_brief": "as §2"}, "[28]": {"settings": "62 g ai/ha, 0 = no effect, 100 = complete control"}, "[29]": {"settings": "62 g ai/ha, postemergence, 10 days, 0 = no effect, 100 = complete control"}, "[30]": {"settings": "Postemergence, 16 g ai/ha, greenhouse 10 days, 0 no effect, 100 complete control"}}, "data": [{"compound": "COC(=O)C1C=CC(NC(=O)C2(C(F)(F)F)CN(c3cc(F)c(F)c(F)c3)C(=O)O2)C1", "note": "(mixture of isomers) [Compound 162]", "values": [{"measurement": "Ryegrass, Italian plant response rating", "setting": "[1]; 16 g ai/ha, 0 to 100 scale", "result": 0}, {"measurement": "Ryegrass, Italian plant response rating (0-100)", "setting": "[1]; [28]", "result": 80}, {"measurement": "Pigweed, Palmer plant response rating", "setting": "[2]; 16 g ai/ha, 0 to 100 scale", "result": 0}, {"measurement": "Pigweed, Palmer plant response rating (0-100)", "setting": "[2]; [28]", "result": 30}, {"measurement": "Foxtail, Green plant response rating", "setting": "[3]; 16 g ai/ha, 0 to 100 scale", "result": 0}, {"measurement": "Foxtail, Green plant response rating (0-100)", "setting": "[3]; [28]", "result": 30}, {"measurement": "Blackgrass plant response rating", "setting": "[4]; 16 g ai/ha, 0 to 100 scale", "result": 0}, {"measurement": "Blackgrass plant response rating (0-100)", "setting": "[4]; [28]", "result": 60}, {"measurement": "Soybean plant response rating", "setting": "[5]; 16 g ai/ha, 0 to 100 scale", "result": 10}, {"measurement": "Soybean plant response rating (0-100)", "setting": "[5]; [28]", "result": 50}, {"measurement": "Barnyardgrass plant response rating", "setting": "[6]; 16 g ai/ha, 0 to 100 scale", "result": 0}, {"measurement": "Barnyardgrass plant response rating (0-100)", "setting": "[6]; [28]", "result": 80}, {"measurement": "Corn plant response rating", "setting": "[7]; 16 g ai/ha, 0 to 100 scale", "result": 0}, {"measurement": "Corn plant response rating (0-100)", "setting": "[7]; [28]", "result": 70}, {"measurement": "Kochia plant response rating", "setting": "[8]; 16 g ai/ha, 0 to 100 scale", "result": 0}, {"measurement": "Kochia plant response rating (0-100)", "setting": "[8]; [28]", "result": 40}, {"measurement": "Wheat plant response rating", "setting": "[9]; 16 g ai/ha, 0 to 100 scale", "result": 20}, {"measurement": "Wheat plant response rating (0-100)", "setting": "[9]; [28]", "result": 90}, {"measurement": "Ragweed plant response rating", "setting": "[10]; 16 g ai/ha, 0 to 100 scale", "result": 0}, {"measurement": "Ragweed plant response rating (0-100)", "setting": "[10]; [28]", "result": 10}, {"measurement": "Oat, Wild plant response rating", "setting": "[11]; 16 g ai/ha, 0 to 100 scale", "result": 20}, {"measurement": "Oat, Wild plant response rating (0-100)", "setting": "[11]; [28]", "result": 90}, {"measurement": "Ryegrass, Italian plant response rating (0-100)", "setting": "[12]; [29]", "result": 70}, {"measurement": "Ryegrass, Italian plant response rating (0 to 100 scale)", "setting": "[12]; [30]", "result": 30}, {"measurement": "Pigweed, Palmer plant response rating (0-100)", "setting": "[13]; [29]", "result": 50}, {"measurement": "Pigweed, Palmer plant response rating (0 to 100 scale)", "setting": "[13]; [30]", "result": 10}, {"measurement": "Foxtail, Green plant response rating (0-100)", "setting": "[14]; [29]", "result": 80}, {"measurement": "Foxtail, Green plant response rating (0 to 100 scale)", "setting": "[14]; [30]", "result": 30}, {"measurement": "Blackgrass plant response rating (0-100)", "setting": "[15]; [29]", "result": 100}, {"measurement": "Blackgrass plant response rating (0 to 100 scale)", "setting": "[15]; [30]", "result": 90}, {"measurement": "Soybean plant response rating (0-100)", "setting": "[16]; [29]", "result": 70}, {"measurement": "Soybean plant response rating (0 to 100 scale)", "setting": "[16]; [30]", "result": 60}, {"measurement": "Barnyardgrass plant response rating (0-100)", "setting": "[17]; [29]", "result": 100}, {"measurement": "Barnyardgrass plant response rating (0 to 100 scale)", "setting": "[17]; [30]", "result": 50}, {"measurement": "Corn plant response rating (0-100)", "setting": "[18]; [29]", "result": 100}, {"measurement": "Corn plant response rating (0 to 100 scale)", "setting": "[18]; [30]", "result": 100}, {"measurement": "Kochia plant response rating (0-100)", "setting": "[19]; [29]", "result": 70}, {"measurement": "Kochia plant response rating (0 to 100 scale)", "setting": "[19]; [30]", "result": 0}, {"measurement": "Wheat plant response rating (0-100)", "setting": "[20]; [29]", "result": 90}, {"measurement": "Wheat plant response rating (0 to 100 scale)", "setting": "[20]; [30]", "result": 90}, {"measurement": "Galium plant response rating (0-100)", "setting": "[21]; [29]", "result": 60}, {"measurement": "Galium plant response rating (0 to 100 scale)", "setting": "[21]; [30]", "result": 30}, {"measurement": "Ragweed plant response rating (0-100)", "setting": "[22]; [29]", "result": 40}, {"measurement": "Ragweed plant response rating (0 to 100 scale)", "setting": "[22]; [30]", "result": 20}, {"measurement": "Oat, Wild plant response rating (0-100)", "setting": "[23]; [29]", "result": 90}, {"measurement": "Oat, Wild plant response rating (0 to 100 scale)", "setting": "[23]; [30]", "result": 80}, {"measurement": "Plant response rating, Barnyardgrass (0 to 100 scale, 0 is no effect and 100 is complete control)", "setting": "[24]", "result": 20}, {"measurement": "Plant response rating, Rice (0 to 100 scale, 0 is no effect and 100 is complete control)", "setting": "[25]", "result": 0}, {"measurement": "Plant response rating, Ducksalad (0 to 100 scale, 0 is no effect and 100 is complete control)", "setting": "[26]", "result": 65}, {"measurement": "Plant response rating, Sedge, Umbrella (0 to 100 scale, 0 is no effect and 100 is complete control)", "setting": "[27]", "result": 0}]}]}
